Literature values as cited in patent US7247752B2, “Methods for the synthesis of astaxanthin” (Cardax Pharmaceuticals, Inc., priority 2004, dated 2007).

Test system: transformed cells as well as normal prostatic epithelium
Conditions: alone and/or in combination with other antioxidants (e.g. vitamin E)

SMILES: CC(C)=CCC/C(C)=C/C=C/C(C)=C/C=C/C(C)=C/C=C/C=C(C)/C=C/C=C(C)/C=C/C=C(\C)CCC=C(C)C [lycopene]
- growth inhibition of cultured human cells: growth inhibitory
